pIC50: −log10 of the molar value. Calls of active or inactive are those of the source. No cut-off for these calls is given here.

Test [1] deals with HCT-116. Put plainly: Cytotoxicity against human HCT-116 cells assessed as inhibition of cell proliferation incubated for 48 hrs by MTS assay. The conditions noted are these: HCT-116, 48 h. In kind it is functional, cell-based.
For test [2], the system named is HepG2. In words: Cytotoxicity against human HepG2 cells assessed as inhibition of cell proliferation incubated for 48 hrs by MTS assay. The test is classed as functional, cell-based. The conditions noted are these: HepG2, 48 h. For orientation: Formazan colour is commonly taken as a measure of viable cells.
The subject of test [3] is B16. Put plainly: Cytotoxicity against mouse B16 cells assessed as inhibition of cell proliferation incubated for 48 hrs by MTS assay. The following applies: B16, 48 h. In kind it is functional, cell-based.
Another test relates to Saccharomyces cerevisiae. Put plainly: Antimicrobial activity against Saccharomyces cerevisiae assessed as fungal growth inhibition by absorbance based assay. The test is classed as functional, organism-based.
In the next test the test system is Candida albicans. Put plainly: Antimicrobial activity against Candida albicans assessed as fungal growth inhibition by absorbance based assay. In kind it is functional, organism-based.
Another test deals with Bacillus subtilis. In words: Antimicrobial activity against Bacillus subtilis assessed as bacterial growth inhibition incubated for 24 hrs by absorbance based assay. In kind it is functional, organism-based.
In a further test the test system is Staphylococcus aureus. In words: Antimicrobial activity against Staphylococcus aureus assessed as bacterial growth inhibition incubated for 24 hrs by absorbance based assay. In kind it is functional, organism-based.
The next test has as its system Escherichia coli. Put plainly: Antimicrobial activity against Escherichia coli assessed as bacterial growth inhibition incubated for 24 hrs by absorbance based assay. In kind it is functional, organism-based.
For test [4], the system named is HCT-116. In words: Cytotoxicity against human HCT-116 cells assessed as inhibition of cell proliferation at 20 ug/ml incubated for 48 hrs by MTS assay. In kind it is functional, cell-based. The following applies: dose 20.0 µg/ml.
The subject of test [5] is HepG2. In words: Cytotoxicity against human HepG2 cells assessed as inhibition of cell proliferation at 20 ug/ml incubated for 48 hrs by MTS assay. The test is classed as functional, cell-based. The following applies: dose 20.0 µg/ml.
Test [6] has as its system B16. In words: Cytotoxicity against mouse B16 cells assessed as inhibition of cell proliferation at 20 ug/ml incubated for 48 hrs by MTS assay. In kind it is functional, cell-based. The conditions noted are these: dose 20.0 µg/ml.

A word on the pIC50: it is the IC50 on a negative log10 scale, so that one unit is a factor of ten. With `C/C=C/CC/C=C/c1cc(OC)cc(=O)o1`, the pIC50 in the test on HCT-116 [1] was 4.66; in the test on HepG2 [2], 4.38; with B16 [3] it was 4.41. Further, the inhibition result with Saccharomyces cerevisiae, in the test with Candida albicans, in the test with Bacillus subtilis, with Staphylococcus aureus and in the test on Escherichia coli was “inactive” in each case.

As for `CCCCC/C=C/c1cc(OC)cc(=O)o1`, the inhibition entry with HCT-116 [4], in the test on HepG2 [5], in the test on B16 [6], in the test with Saccharomyces cerevisiae, in the test with Candida albicans and in the test on Bacillus subtilis was “inactive” throughout. Also, the inhibition result in the test on Staphylococcus aureus and with Escherichia coli was “inactive” in each case.

Consider `CCCCC[C@@H](O)[C@H](O)c1cc(OC)cc(=O)o1`, for which the inhibition result with HCT-116 [4], in the test on HepG2 [5], in the test with B16 [6], with Saccharomyces cerevisiae, with Candida albicans and with Bacillus subtilis was “inactive” each time. Further, the inhibition entry in the test with Staphylococcus aureus and with Escherichia coli was “inactive” each time.

Take `C/C=C/CC[C@@H](O)[C@H](O)c1cc(OC)cc(=O)o1`: the inhibition result in the test with HCT-116 [4], in the test on HepG2 [5], with B16 [6], in the test on Saccharomyces cerevisiae, in the test with Candida albicans and in the test with Bacillus subtilis was “inactive” each time. Moreover, the inhibition result in the test with Staphylococcus aureus and in the test on Escherichia coli was “inactive” throughout.
